Laboratory results as given in PMC11062894, “Protein-based bandpass filters for controlling cellular signaling with chemical inputs” (Nature Chemical Biology, 2023).

Tested on: GEMS receptors with CBPvene (Bcl2–LD3 and Bcl2high variants), STAT3-driven SEAP in HEK293T cells
Assay: GEMS SEAP reporter assay, CBPvene (Bcl2high, LD3-v and Bcl2-v variants) with venetoclax
Format: cell-based
Conditions: for SEAP normalized (max=100) / SEAP: Supp Fig 10c
[1] = SuppFigure 8a, LD3, venetoclax 1 nM
[2] = SuppFigure 8a, LD3, venetoclax 3.16 nM
[3] = SuppFigure 8a, LD3, venetoclax 100 nM
[4] = SuppFigure 8a, LD3, venetoclax 316 nM
[5] = SuppFigure 8a, LD3, venetoclax 1000 nM
[6] = SuppFigure 8a, LD3, venetoclax 3160 nM
[7] = SuppFigure 8a, LD3, venetoclax 10000 nM
[8] = SuppFigure 8a, LD3v1, venetoclax 1 nM
[9] = SuppFigure 8a, LD3v1, venetoclax 3.16 nM
[10] = SuppFigure 8a, LD3v1, venetoclax 100 nM
[11] = SuppFigure 8a, LD3v1, venetoclax 316 nM
[12] = SuppFigure 8a, LD3v1, venetoclax 1000 nM
[13] = SuppFigure 8a, LD3v1, venetoclax 3160 nM
[14] = SuppFigure 8a, LD3v1, venetoclax 10000 nM
[15] = SuppFigure 8a, LD3v2, venetoclax 1 nM
[16] = SuppFigure 8a, LD3v2, venetoclax 3.16 nM
[17] = SuppFigure 8a, LD3v2, venetoclax 100 nM
[18] = SuppFigure 8a, LD3v2, venetoclax 316 nM
[19] = SuppFigure 8a, LD3v2, venetoclax 1000 nM
[20] = SuppFigure 8a, LD3v2, venetoclax 3160 nM
[21] = SuppFigure 8a, LD3v2, venetoclax 10000 nM
[22] = SuppFigure 8a, LD3v3, venetoclax 1 nM
[23] = SuppFigure 8a, LD3v3, venetoclax 3.16 nM
[24] = SuppFigure 8a, LD3v3, venetoclax 100 nM
[25] = SuppFigure 8a, LD3v3, venetoclax 316 nM
[26] = SuppFigure 8a, LD3v3, venetoclax 1000 nM
[27] = SuppFigure 8a, LD3v3, venetoclax 3160 nM
[28] = SuppFigure 8a, LD3v3, venetoclax 10000 nM
[29] = SuppFigure 8b, LD3, venetoclax 1 nM
[30] = SuppFigure 8b, LD3, venetoclax 3.16 nM

For `CC1(C)CCC(CN2CCN(c3ccc(C(=O)NS(=O)(=O)c4ccc(NCC5CCOCC5)c([N+](=O)[O-])c4)c(Oc4cnc5[nH]ccc5c4)c3)CC2)=C(c2ccc(Cl)cc2)C1` [Venetoclax], the “SEAP normalized (max=100)” value (Bcl2-v3, venetoclax 1 nM) was 94.2276, the SEAP (Bcl2-v3, venetoclax 3.16 nM) was 34.981 and the “SEAP normalized (max=100)” value (Bcl2-v3, venetoclax 3.16 nM) was 94.0003. For the same compound, the SEAP (Bcl2-v5, venetoclax 1 nM) was 25.6864, the “SEAP normalized (max=100)” value (Bcl2-v5, venetoclax 1 nM) was 99.6735 and the SEAP (Bcl2-v5, venetoclax 3.16 nM) was 25.7705. The “SEAP normalized (max=100)” value (Bcl2-v5, venetoclax 3.16 nM) was 100, the SEAP (Bcl2-v6, venetoclax 1 nM) was 44.5051 and the “SEAP normalized (max=100)” value (Bcl2-v6, venetoclax 1 nM) was 24.1282. For the same compound, the SEAP (Bcl2, venetoclax 1 nM) was 9.631, the “SEAP normalized (max=100)” value (Bcl2, venetoclax 1 nM) was 6.451 and the SEAP (Bcl2, venetoclax 3.16 nM) was 8.848. For the same compound, the “SEAP normalized (max=100)” value (Bcl2, venetoclax 3.16 nM) was 5.926, the “Normalized data (SEAP)” value [1] was 18.1283 and the “Raw data (SEAP)” value [1] was 14.9284. For the same compound, the “Normalized data (SEAP)” value [2] was 15.4665, the “Raw data (SEAP)” value [2] was 12.7365 and the “Normalized data (SEAP)” value [3] was 62.0224. For the same compound, the “Raw data (SEAP)” value [3] was 51.0746, the “Normalized data (SEAP)” value [4] was 79.6476 and the “Raw data (SEAP)” value [4] was 65.5888. The “Normalized data (SEAP)” value [5] was 100, the “Raw data (SEAP)” value [5] was 82.3488 and the “Normalized data (SEAP)” value [6] was 64.1557. The “Raw data (SEAP)” value [6] was 52.8314, the “Normalized data (SEAP)” value [7] was 26.7094 and the “Raw data (SEAP)” value [7] was 21.9948. The “Normalized data (SEAP)” value [8] was 73.3263, the “Raw data (SEAP)” value [8] was 13.9463 and the “Normalized data (SEAP)” value [9] was 77.9742. The “Raw data (SEAP)” value [9] was 14.8303, the “Normalized data (SEAP)” value [10] was 93.9945 and the “Raw data (SEAP)” value [10] was 17.8773. The “Normalized data (SEAP)” value [11] was 100, the “Raw data (SEAP)” value [11] was 19.0195 and the “Normalized data (SEAP)” value [12] was 92.9583. The “Raw data (SEAP)” value [12] was 17.6802, the “Normalized data (SEAP)” value [13] was 77.7035 and the “Raw data (SEAP)” value [13] was 14.7788. For the same compound, the “Normalized data (SEAP)” value [14] was 63.3664, the “Raw data (SEAP)” value [14] was 12.052 and the “Normalized data (SEAP)” value [15] was 16.5083. The “Raw data (SEAP)” value [15] was 13.4033, the “Normalized data (SEAP)” value [16] was 16.1655 and the “Raw data (SEAP)” value [16] was 13.125. The “Normalized data (SEAP)” value [17] was 55.5208, the “Raw data (SEAP)” value [17] was 45.078 and the “Normalized data (SEAP)” value [18] was 68.4407. The “Raw data (SEAP)” value [18] was 55.5679, the “Normalized data (SEAP)” value [19] was 100 and the “Raw data (SEAP)” value [19] was 81.1913. For the same compound, the “Normalized data (SEAP)” value [20] was 59.661, the “Raw data (SEAP)” value [20] was 48.4395 and the “Normalized data (SEAP)” value [21] was 19.9233. For the same compound, the “Raw data (SEAP)” value [21] was 16.176, the “Normalized data (SEAP)” value [22] was 79.8276 and the “Raw data (SEAP)” value [22] was 14.5214. The “Normalized data (SEAP)” value [23] was 77.8421, the “Raw data (SEAP)” value [23] was 14.1602 and the “Normalized data (SEAP)” value [24] was 89.5467. For the same compound, the “Raw data (SEAP)” value [24] was 16.2894, the “Normalized data (SEAP)” value [25] was 90.6522 and the “Raw data (SEAP)” value [25] was 16.4905. For the same compound, the “Normalized data (SEAP)” value [26] was 100, the “Raw data (SEAP)” value [26] was 18.191 and the “Normalized data (SEAP)” value [27] was 92.956. For the same compound, the “Raw data (SEAP)” value [27] was 16.9096, the “Normalized data (SEAP)” value [28] was 54.34 and the “Raw data (SEAP)” value [28] was 9.885. For the same compound, the “Normalized data (SEAP)” value [29] was 3.308, the “Raw data (SEAP)” value [29] was 13.9036 and the “Normalized data (SEAP)” value [30] was 3.395. The “Raw data (SEAP)” value [30] was 14.2688.
